This passage reports AC50 results from ChEMBL document CHEMBL5291721, “A preclinical secondary pharmacology resource illuminates target-adverse drug reaction associations of marketed drugs” (Nat Commun, 2023).

Broadly, the AC50 is the concentration giving half of the maximal activity seen. A low value points to activity at low concentration.

In assay [1] the target is 5-hydroxytryptamine receptor 2B (Homo sapiens, UniProt P41595). It is filed as functional, cell-based.
Assay [2] addresses T1, Alpha-1A adrenergic receptor (Homo sapiens, UniProt P35348).
T1 sequence (P35348 whole entry): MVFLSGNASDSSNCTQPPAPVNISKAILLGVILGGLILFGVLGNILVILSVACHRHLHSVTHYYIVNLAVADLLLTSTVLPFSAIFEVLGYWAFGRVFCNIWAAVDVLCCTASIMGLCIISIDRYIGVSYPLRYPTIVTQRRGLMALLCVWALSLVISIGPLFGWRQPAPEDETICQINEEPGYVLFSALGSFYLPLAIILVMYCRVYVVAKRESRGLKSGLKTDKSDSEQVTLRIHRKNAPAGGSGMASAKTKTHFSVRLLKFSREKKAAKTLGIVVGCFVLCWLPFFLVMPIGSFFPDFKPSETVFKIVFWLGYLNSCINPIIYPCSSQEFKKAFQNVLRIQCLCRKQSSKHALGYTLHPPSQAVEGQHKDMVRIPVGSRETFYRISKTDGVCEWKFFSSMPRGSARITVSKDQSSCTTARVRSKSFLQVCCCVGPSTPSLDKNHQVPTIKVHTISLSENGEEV
In kind it is functional, cell-based.

For assay [3], the target named is T2, Beta-2 adrenergic receptor (Homo sapiens, UniProt P07550). In kind it is functional, cell-based.
T2 sequence (P07550 whole entry): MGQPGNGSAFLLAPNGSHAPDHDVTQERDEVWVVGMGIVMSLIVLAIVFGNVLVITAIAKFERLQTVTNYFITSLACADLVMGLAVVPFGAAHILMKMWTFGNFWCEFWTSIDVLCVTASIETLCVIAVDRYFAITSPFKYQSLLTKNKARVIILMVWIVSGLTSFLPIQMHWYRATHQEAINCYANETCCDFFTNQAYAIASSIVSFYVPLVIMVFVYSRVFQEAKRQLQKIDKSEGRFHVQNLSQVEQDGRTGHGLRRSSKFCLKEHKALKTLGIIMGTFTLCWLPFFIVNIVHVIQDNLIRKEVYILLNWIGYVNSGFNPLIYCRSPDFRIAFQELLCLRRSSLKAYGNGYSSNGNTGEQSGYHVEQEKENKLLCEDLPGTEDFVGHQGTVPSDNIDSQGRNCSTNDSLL
In assay [4] the target is Sodium-dependent dopamine transporter (Homo sapiens, UniProt Q01959).
Sequence of Sodium-dependent dopamine transporter (Q01959 whole entry): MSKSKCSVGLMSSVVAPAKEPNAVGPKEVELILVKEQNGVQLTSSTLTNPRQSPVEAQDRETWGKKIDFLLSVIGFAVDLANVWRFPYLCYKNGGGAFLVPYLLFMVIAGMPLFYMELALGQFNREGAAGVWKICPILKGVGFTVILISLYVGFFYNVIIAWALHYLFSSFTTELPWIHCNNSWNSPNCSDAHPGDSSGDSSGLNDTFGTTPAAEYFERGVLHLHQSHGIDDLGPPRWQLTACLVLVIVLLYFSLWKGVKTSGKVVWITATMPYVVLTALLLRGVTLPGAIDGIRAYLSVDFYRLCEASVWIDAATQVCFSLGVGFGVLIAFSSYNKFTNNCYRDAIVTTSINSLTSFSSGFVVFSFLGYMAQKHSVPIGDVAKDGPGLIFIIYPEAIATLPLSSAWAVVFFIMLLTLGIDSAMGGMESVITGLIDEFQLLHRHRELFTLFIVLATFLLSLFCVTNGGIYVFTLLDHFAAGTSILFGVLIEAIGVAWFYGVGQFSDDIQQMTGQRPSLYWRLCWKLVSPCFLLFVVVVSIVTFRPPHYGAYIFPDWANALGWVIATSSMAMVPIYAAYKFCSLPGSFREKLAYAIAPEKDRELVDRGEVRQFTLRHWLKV
Assay [5] has as its target T3, Muscarinic acetylcholine receptor M2 (Homo sapiens, UniProt P08172).
T3 sequence (P08172 whole entry): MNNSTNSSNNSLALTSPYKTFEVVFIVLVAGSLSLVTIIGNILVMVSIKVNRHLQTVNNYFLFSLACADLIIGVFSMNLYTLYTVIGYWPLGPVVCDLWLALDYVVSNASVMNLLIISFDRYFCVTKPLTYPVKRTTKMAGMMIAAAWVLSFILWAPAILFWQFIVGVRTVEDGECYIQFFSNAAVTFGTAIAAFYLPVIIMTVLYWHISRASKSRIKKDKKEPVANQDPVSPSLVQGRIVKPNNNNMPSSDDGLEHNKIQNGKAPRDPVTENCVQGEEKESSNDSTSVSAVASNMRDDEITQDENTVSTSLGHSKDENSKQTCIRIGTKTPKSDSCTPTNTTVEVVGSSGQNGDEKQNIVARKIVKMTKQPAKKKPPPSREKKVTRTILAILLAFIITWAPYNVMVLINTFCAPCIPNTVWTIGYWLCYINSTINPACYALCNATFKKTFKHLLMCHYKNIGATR
In kind it is functional, cell-based.

The target of assay [6] is T1, Alpha-1A adrenergic receptor. In kind it is functional, cell-based. This is another data set of the same source.
In assay [7] the target is T2, Beta-2 adrenergic receptor.
The target in a further assay is T4, Progesterone receptor (Homo sapiens, UniProt P06401).
T4 sequence (P06401 whole entry): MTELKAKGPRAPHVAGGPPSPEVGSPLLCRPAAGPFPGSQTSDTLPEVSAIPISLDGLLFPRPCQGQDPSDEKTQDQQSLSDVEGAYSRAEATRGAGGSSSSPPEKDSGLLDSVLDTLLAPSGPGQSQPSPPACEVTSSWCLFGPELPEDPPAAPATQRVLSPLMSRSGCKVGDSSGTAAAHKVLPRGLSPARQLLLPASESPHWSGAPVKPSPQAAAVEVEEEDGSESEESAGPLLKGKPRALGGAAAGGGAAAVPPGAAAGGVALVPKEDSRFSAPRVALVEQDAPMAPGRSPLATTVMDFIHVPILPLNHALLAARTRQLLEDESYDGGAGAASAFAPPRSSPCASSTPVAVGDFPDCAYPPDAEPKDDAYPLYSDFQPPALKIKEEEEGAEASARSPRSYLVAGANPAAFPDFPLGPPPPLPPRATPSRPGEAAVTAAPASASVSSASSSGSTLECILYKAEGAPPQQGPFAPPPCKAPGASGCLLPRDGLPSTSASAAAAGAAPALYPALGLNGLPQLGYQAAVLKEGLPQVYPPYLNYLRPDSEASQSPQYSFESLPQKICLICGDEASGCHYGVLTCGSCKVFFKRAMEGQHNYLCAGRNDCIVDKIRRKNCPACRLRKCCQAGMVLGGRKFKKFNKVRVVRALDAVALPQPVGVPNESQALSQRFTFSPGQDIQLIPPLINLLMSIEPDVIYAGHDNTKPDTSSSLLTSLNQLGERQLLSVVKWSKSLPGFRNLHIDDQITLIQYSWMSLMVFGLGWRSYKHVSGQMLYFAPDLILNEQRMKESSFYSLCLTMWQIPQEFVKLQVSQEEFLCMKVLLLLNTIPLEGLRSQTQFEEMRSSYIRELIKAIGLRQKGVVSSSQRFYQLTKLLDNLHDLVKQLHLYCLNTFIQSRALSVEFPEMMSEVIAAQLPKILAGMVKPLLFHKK
In kind it is functional.

Assay [8] deals with T5, Muscarinic acetylcholine receptor M1 (Homo sapiens, UniProt P11229).
T5 sequence (P11229 whole entry): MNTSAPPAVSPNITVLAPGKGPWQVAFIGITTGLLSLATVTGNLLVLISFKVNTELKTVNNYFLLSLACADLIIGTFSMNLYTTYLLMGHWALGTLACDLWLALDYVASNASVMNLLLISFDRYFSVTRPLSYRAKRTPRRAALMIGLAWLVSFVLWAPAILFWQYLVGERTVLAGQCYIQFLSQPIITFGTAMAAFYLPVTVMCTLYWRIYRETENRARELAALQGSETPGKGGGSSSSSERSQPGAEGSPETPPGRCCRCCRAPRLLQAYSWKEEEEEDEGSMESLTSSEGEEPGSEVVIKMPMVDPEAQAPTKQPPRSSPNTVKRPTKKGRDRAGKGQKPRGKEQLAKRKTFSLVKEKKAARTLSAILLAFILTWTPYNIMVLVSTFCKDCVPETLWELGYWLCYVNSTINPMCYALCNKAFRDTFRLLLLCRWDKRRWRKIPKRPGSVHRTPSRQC
In kind it is functional.

Assay [9] concerns the target Muscarinic acetylcholine receptor M3 (Homo sapiens, UniProt P20309).
Also: assay procedure not described here.

Sequence of Muscarinic acetylcholine receptor M3 (P20309 whole entry): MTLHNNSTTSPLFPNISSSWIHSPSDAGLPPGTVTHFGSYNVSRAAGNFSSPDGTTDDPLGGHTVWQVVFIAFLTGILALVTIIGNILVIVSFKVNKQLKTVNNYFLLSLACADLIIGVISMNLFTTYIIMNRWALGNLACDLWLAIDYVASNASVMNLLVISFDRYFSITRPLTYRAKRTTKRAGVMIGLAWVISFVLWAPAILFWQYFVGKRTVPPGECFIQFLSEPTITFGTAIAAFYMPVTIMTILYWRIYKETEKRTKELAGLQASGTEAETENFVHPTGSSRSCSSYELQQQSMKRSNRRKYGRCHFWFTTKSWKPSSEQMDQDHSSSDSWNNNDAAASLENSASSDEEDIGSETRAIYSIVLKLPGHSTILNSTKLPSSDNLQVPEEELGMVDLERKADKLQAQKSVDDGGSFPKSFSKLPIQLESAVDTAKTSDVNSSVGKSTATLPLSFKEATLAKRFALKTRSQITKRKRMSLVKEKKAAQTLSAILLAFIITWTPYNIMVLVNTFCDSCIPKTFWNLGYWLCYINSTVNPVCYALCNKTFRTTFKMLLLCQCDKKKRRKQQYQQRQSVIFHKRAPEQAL
Sequence of 5-hydroxytryptamine receptor 2B (P41595 whole entry): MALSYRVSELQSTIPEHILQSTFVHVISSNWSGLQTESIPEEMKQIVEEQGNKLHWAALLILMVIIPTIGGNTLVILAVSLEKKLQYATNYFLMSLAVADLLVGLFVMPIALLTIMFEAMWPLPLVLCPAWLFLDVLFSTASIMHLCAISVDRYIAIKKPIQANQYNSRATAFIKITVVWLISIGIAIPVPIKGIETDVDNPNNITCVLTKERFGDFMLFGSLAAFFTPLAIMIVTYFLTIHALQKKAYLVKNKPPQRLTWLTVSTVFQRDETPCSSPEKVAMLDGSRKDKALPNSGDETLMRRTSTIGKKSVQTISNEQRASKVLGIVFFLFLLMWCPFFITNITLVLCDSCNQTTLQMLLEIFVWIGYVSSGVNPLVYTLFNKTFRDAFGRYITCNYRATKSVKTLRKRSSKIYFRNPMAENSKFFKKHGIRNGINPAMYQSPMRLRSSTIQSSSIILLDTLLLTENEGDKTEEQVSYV

In turn, `O=C(O)[C@@H](S)[C@@H](S)C(=O)O` had a half-maximal activity concentration (AC50) in assay [1] of more than 30 µM.

`CCOC(=O)[C@H](CCc1ccccc1)N[C@@H](C)C(=O)N1Cc2ccccc2C[C@H]1C(=O)O`: the AC50 in [2] is more than 30 µM; in assay [1], more than 30 µM; in assay [3], more than 30 µM; in assay [4], more than 10 µM; in assay [5], more than 10 µM; in assay [6], more than 30 µM. Besides, in assay [7], the AC50 is more than 10 µM.

Take `O=C(O)COC(=O)Cc1ccccc1Nc1c(Cl)cccc1Cl` [ACECLOFENAC]: the AC50 in assay [2] is more than 30 µM; in assay [4], more than 30 µM; in assay [5], more than 10 µM; in [7], more than 10 µM.

As to `CC[N+](CC)(CCNC(=O)C(=O)NCC[N+](CC)(CC)Cc1ccccc1Cl)Cc1ccccc1Cl` [AMBENONIUM], the AC50 at Progesterone receptor is more than 30 µM; in assay [8], 1.6 µM; in assay [4], more than 30 µM; in assay [9] it was 1.1 µM; in assay [5], more than 30 µM.

On to `NCCCNCCSP(=O)(O)O` [AMIFOSTINE], for which the AC50 in assay [2], in assay [3], in assay [4], in [5] and in assay [7] was more than 30 µM in each case.

For `NCCCCCC(=O)O` [AMINOCAPROIC ACID], the AC50 at Progesterone receptor is more than 10 µM; in assay [4] it was 12.7 µM; in assay [5], more than 10 µM; in assay [7], more than 10 µM.

In the case of `CN(C)CCC=C1c2ccccc2CCc2ccccc21` [AMITRIPTYLINE], the AC50 in assay [2] was more than 30 µM; on Progesterone receptor it was more than 30 µM; in assay [4] it was 13.8 µM; in assay [7], 21.1 µM.

With `CC(=O)Oc1ccccc1C(=O)O` [ASPIRIN], the AC50 in [2], in assay [1], in [3], in [4], in [5] and in assay [6] was more than 30 µM each time. This compound came in with an AC50 in [7] of more than 10 µM.

As to `CC(C)NCC(O)COc1ccc(CC(N)=O)cc1` (centres undefined) [ATENOLOL], the AC50 (in assay [2]; at Progesterone receptor) was more than 30 µM each time.

`CC(C)C[C@H](NC(=O)[C@H](Cc1ccccc1)NC(=O)c1cnccn1)B(O)O` [BORTEZOMIB]: the AC50 (at Progesterone receptor; in assay [8]; in assay [4]; in assay [9]; in [5]; in assay [7]) was more than 30 µM throughout.

On to `C[C@H](CS)C(=O)N1CCC[C@H]1C(=O)O` [CAPTOPRIL], for which the AC50 in assay [2] is more than 30 µM; in assay [3], more than 30 µM; in [4], more than 30 µM; in assay [5], more than 10 µM; in assay [7], more than 10 µM.

In the case of `CN(C)CCCC1(c2ccc(F)cc2)OCc2cc(C#N)ccc21` (centres undefined) [CITALOPRAM], the AC50 is more than 30 µM in assay [1], more than 30 µM in assay [3] and more than 10 µM in [7].

Regarding `O=P1(N(CCCl)CCCl)NCCCO1` (centres undefined) [CYCLOPHOSPHAMIDE ANHYDROUS], the AC50 in assay [1] and in [6] was more than 30 µM in each case.

For the compound `COC(=O)CCc1ccc(OCC(O)CNC(C)C)cc1` (centres undefined) [ESMOLOL], the AC50 is more than 30 µM in assay [2]; more than 30 µM on Progesterone receptor; more than 30 µM in assay [4]; more than 30 µM in assay [5]; 27 µM in [7].

For the compound `O=c1[nH]cc(F)c(=O)[nH]1` [FLUOROURACIL], the AC50 in assay [1], in [4] and in [6] was more than 30 µM in each case.

On to `CCN(CCO)CCCC(C)Nc1ccnc2cc(Cl)ccc12` (centres undefined) [HYDROXYCHLOROQUINE], for which the AC50 (on Progesterone receptor; in [4]; in assay [5]; in assay [7]) was more than 10 µM each time.

As to `CNC1(c2ccccc2Cl)CCCCC1=O` (centres undefined) [KETAMINE], the AC50 in assay [1] and in assay [6] was more than 30 µM in each case.

Turning to `O=C(c1ccccc1)c1ccc2n1CCC2C(=O)O` (centres undefined) [KETOROLAC], the AC50 in assay [2] was more than 30 µM; on Progesterone receptor, more than 10 µM; in assay [4], more than 10 µM; in [5], more than 30 µM; in assay [7], more than 10 µM.

For `Nc1nnc(-c2cccc(Cl)c2Cl)c(N)n1` [LAMOTRIGINE], the AC50 in assay [2] is more than 30 µM; in assay [3], more than 30 µM; in assay [4] it was more than 10 µM; in assay [5], more than 10 µM; in assay [7], more than 10 µM.

With `O=NN(CCCl)C(=O)NC1CCCCC1` [LOMUSTINE], the results for the AC50 in assay [1] and in assay [6] were more than 30 µM and more than 3 µM, respectively.

For the compound `CNC1(C)C2CCC(C2)C1(C)C` (centres undefined) [MECAMYLAMINE], the AC50 at Progesterone receptor was more than 10 µM; in assay [8], more than 10 µM; in assay [4], more than 10 µM; in assay [9], more than 30 µM; in assay [5], more than 10 µM; in assay [7], more than 10 µM.

`CCC1(c2ccccc2)C(=O)NCNC1=O` [PRIMIDONE]: the half-maximal activity concentration (AC50) (on Progesterone receptor; in assay [4]; in [5]; in assay [7]) was more than 10 µM throughout.

Consider `CC(=O)SCC(Cc1ccccc1)C(=O)NCC(=O)OCc1ccccc1` (centres undefined) [RACECADOTRIL], for which the AC50 at Progesterone receptor is more than 30 µM; in assay [8] it was more than 30 µM; in assay [4] it was more than 30 µM; in assay [9], more than 30 µM; in [5], more than 30 µM; in assay [7] it was more than 10 µM.

Turning to `CCOc1ccccc1OCCN[C@H](C)Cc1ccc(OC)c(S(N)(=O)=O)c1` [TAMSULOSIN], the AC50 is more than 10 µM in assay [8]; more than 30 µM in assay [4]; more than 30 µM in assay [9]; more than 10 µM in [5]; 2.2 µM in [7].

For `C[C@H](Cn1cnc2c(N)ncnc21)OCP(=O)(O)O` [TENOFOVIR ANHYDROUS], the half-maximal activity concentration (AC50) (in [2]; at Progesterone receptor; in [8]; in assay [4]; in assay [9]; in assay [5]) was more than 30 µM throughout. Moreover, the AC50 in [7] was more than 30 µM.
